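Tested at 5 concentrations; 48 h exposure; 96-well plates; endpoints linearly interpolated, else capped at highest concentration. Here, GI50 denotes the concentration required for 50% inhibition of growth. TGI marks complete inhibition of growth.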

Test systems include SR leukemia; HL-60(TB) leukemia; HOP-62 NSCLC; ACHN renal; HCT-15 colon; NCI-H226 lung; TK-10 renal; SW-620 colon; SN12C renal; CAKI-1 renal.
Test in all cases: inhibition of tumour cell growth, NCI panel, 48 h

In the case of `Cc1cc(Cc2cc(C)cc(C(C)(C)C)c2O)c(O)c(Cc2cc(C)cc(C(C)(C)C)c2O)c1`, the TGI in the test with SR leukemia was above 28.6 µM; in the test with HL-60(TB) leukemia, 5.23 µM; in the test with HOP-62 NSCLC it was 7.94 µM; in the test on ACHN renal, 11.3 µM; in the test on HCT-15 colon, 11.3 µM; with NCI-H226 lung, 11.5 µM. Further, the TGI was found to be 8.59 µM in the test on TK-10 renal, 16.7 µM in the test with SW-620 colon, 8.28 µM in the test on SN12C renal and 13.5 µM in the test with CAKI-1 renal.

For `CCN1Cc2c(ccc(F)c2C#N)O[C@@H](C)CNC(=O)c2c(N)nn3ccc1nc23`, the GI50 in the test with SR leukemia is 626 nM; in the test with HL-60(TB) leukemia it was 4.37 µM; in the test on HOP-62 NSCLC, 2760 nM; in the test on ACHN renal it was 0.676 µM; in the test with HCT-15 colon it was 2.46 µM; with NCI-H226 lung, 3.79 µM. For the same compound, the GI50 is 1.29 µM with TK-10 renal, 3.87 µM in the test on SW-620 colon, 1.35 µM in the test on SN12C renal and 0.399 µM in the test on CAKI-1 renal. Further, the TGI in the test on SR leukemia is above 100 µM; with HL-60(TB) leukemia, 40 µM; with HOP-62 NSCLC it was 20.1 µM; with ACHN renal, 6.86 µM; in the test with HCT-15 colon, 14.9 µM; in the test with NCI-H226 lung it was 18.6 µM. In addition, the TGI came to 11.7 µM in the test with TK-10 renal, 80.2 µM in the test with SW-620 colon, 18.5 µM in the test on SN12C renal and 1.98 µM with CAKI-1 renal.

Regarding `O=C(O)c1cc(-c2ccncc2)nc2ccccc12`, the TGI in the test with SR leukemia, in the test on HL-60(TB) leukemia, in the test on HOP-62 NSCLC, in the test with ACHN renal, in the test with HCT-15 colon and in the test with NCI-H226 lung was above 100 µM throughout. Further, the TGI with TK-10 renal, with SW-620 colon, in the test on SN12C renal and with CAKI-1 renal was above 100 µM throughout.

As to `Oc1ccccc1C=Nc1nc(SCc2ccccc2)nc2[nH]ncc12`, the GI50 was 22500 nM in the test with SR leukemia; 26.1 µM in the test with HL-60(TB) leukemia; above 100000 nM in the test with HOP-62 NSCLC; 41.7 µM with ACHN renal; above 100 µM in the test on HCT-15 colon; 54.3 µM in the test on NCI-H226 lung. Further, the GI50 in the test with TK-10 renal is 23.9 µM; with SW-620 colon it was 40 µM; with SN12C renal, above 100 µM; in the test on CAKI-1 renal, 47.6 µM. In addition, the TGI was above 100 µM with SR leukemia; 95.7 µM in the test on HL-60(TB) leukemia; above 100 µM in the test with HOP-62 NSCLC; above 100 µM in the test with ACHN renal; above 100 µM in the test on HCT-15 colon; above 100 µM in the test on NCI-H226 lung. The TGI in the test with TK-10 renal, in the test on SW-620 colon, in the test on SN12C renal and in the test on CAKI-1 renal was above 100 µM each time.

As for `CC(=O)OCC(=O)[C@@]12OC(C)(C)O[C@@H]1C[C@H]1[C@@H]3CC=C4C[C@@H](O)CC[C@]4(C)[C@H]3CC[C@@]12C`, the TGI in the test with SR leukemia, in the test on HL-60(TB) leukemia, in the test on HOP-62 NSCLC, in the test on ACHN renal, in the test on HCT-15 colon and in the test with NCI-H226 lung was above 100 µM each time. Besides, the TGI in the test on TK-10 renal, with SW-620 colon, in the test on SN12C renal and in the test with CAKI-1 renal was above 100 µM in each case.

As to `Cc1ccc2c(c1)C(C)Cc1c(Cl)ncnc1N2C` (stereo not given), the GI50 is 3530 nM in the test on SR leukemia; 3.07 µM in the test on HL-60(TB) leukemia; 3740 nM with HOP-62 NSCLC; 3.7 µM in the test with ACHN renal; 3.08 µM in the test with HCT-15 colon; 2.03 µM in the test on NCI-H226 lung. Besides, the GI50 with TK-10 renal was 4.32 µM; in the test with SW-620 colon, 3.2 µM; with SN12C renal, 3.64 µM; in the test on CAKI-1 renal it was 3.22 µM. For the same compound, the TGI is above 100 µM in the test on SR leukemia; 71.8 µM in the test with HL-60(TB) leukemia; 22.2 µM with HOP-62 NSCLC; above 100 µM in the test on ACHN renal; 14.1 µM in the test on HCT-15 colon; 5.34 µM in the test with NCI-H226 lung. Besides, the TGI is 34.4 µM in the test with TK-10 renal, 13.3 µM in the test with SW-620 colon, 13.7 µM in the test on SN12C renal and above 100 µM in the test with CAKI-1 renal.

On to `CN1CC[C@]2(C)c3cc(O)ccc3CC3CCCC1C32C` (stereo not given in full), for which the TGI in the test on SR leukemia, with HL-60(TB) leukemia, with HOP-62 NSCLC, in the test with ACHN renal, in the test on HCT-15 colon and in the test on NCI-H226 lung was above 100 µM each time. The TGI with TK-10 renal, in the test with SW-620 colon, in the test on SN12C renal and in the test on CAKI-1 renal was above 100 µM each time.

For the compound `O=C1C2C(c3ccccc3)NC(c3ccccc3)C1C(c1ccccc1)NC2c1ccccc1` (stereo not given), the TGI with SR leukemia, in the test with HL-60(TB) leukemia, in the test with HOP-62 NSCLC, in the test with ACHN renal, with HCT-15 colon and in the test on NCI-H226 lung was above 100 µM throughout. The TGI in the test on TK-10 renal, in the test with SW-620 colon, in the test with SN12C renal and in the test on CAKI-1 renal was above 100 µM each time.

Take `O=c1oc2cc(N=Cc3ccc4c(c3)OCO4)ccc2c2ccccc12`: the TGI in the test with SR leukemia, with HL-60(TB) leukemia, in the test on HOP-62 NSCLC, in the test on ACHN renal, in the test with HCT-15 colon and in the test with NCI-H226 lung was above 100 µM each time. Moreover, the TGI in the test with TK-10 renal, in the test with SW-620 colon, in the test on SN12C renal and with CAKI-1 renal was above 100 µM throughout.

Consider `CC(C)COCC(CN(Cc1ccccc1)c1ccccc1)N1CCCC1` (stereo not given), for which the GI50 in the test with SR leukemia is 2080 nM; in the test with HL-60(TB) leukemia it was 3.09 µM; in the test with HOP-62 NSCLC, 2820 nM; in the test on ACHN renal, 4.99 µM; in the test on HCT-15 colon, 3.15 µM; with NCI-H226 lung, 2.28 µM. Further, the GI50 in the test on TK-10 renal was 3.43 µM; with SW-620 colon it was 3.54 µM; in the test on SN12C renal it was 3.48 µM; in the test on CAKI-1 renal, 3.25 µM. Also, the TGI is 5.34 µM with SR leukemia; 7.56 µM in the test on HL-60(TB) leukemia; 14.4 µM with HOP-62 NSCLC; 17 µM in the test on ACHN renal; 15.2 µM in the test with HCT-15 colon; 9.48 µM in the test with NCI-H226 lung. In addition, the TGI in the test on TK-10 renal came to 12 µM; with SW-620 colon it was 15.2 µM; in the test on SN12C renal, 15.4 µM; with CAKI-1 renal, 13.7 µM.

These data come from PubChem BioAssay (NCI).
